Assay results: patent US6562820B2, “Method for treatment and prevention of mastitis” (Pharmacia & Upjohn Company, priority 2000, dated 2003)

Assays:
Type in all cases: in vivo
[1] = tested on: cow in dry period with moderate mastitis; test: Treatment of mastitis in a dry-period cow by intramammary infusion; conditions: 3-lactation cow in dry period, 300 mg once per day for 5 days, solution
Procedure: A 3-lactation cow in dry period with moderate mastitis is administered 300 mg of the oxazolidinone in EXAMPLE 1, once per day for 5 days. The oxazolidinone is formulated as a solution and administered by intramammary infusion.

cow without mastitis = test: Prevention of mastitis in a cow at the start of dry off period by intramammary infusion; conditions: 2-lactation cow without mastitis, single dose of 250 mg at start of dry off period, solution, mastitis occurs in untreated dry cows of same herd
Procedure: A 2-lactation cow without mastitis is administered a single dose of 250 mg of the oxazolidinone in EXAMPLE 2 at the start of dry off period. The oxazolidinone is formulated as a solution and administered by intramammary infusion. Although mastitis occurs in other dry cows that are in the same herd but are not treated with the oxazolidinones, the cow treated is not infected.

[2] = tested on: cow in lactation with moderate mastitis; test: Treatment of mastitis in a lactating cow with oxazolidinone plus bovine lactoferrin by intramammary infusion; conditions: 3-lactation cow in lactation, 300 mg in combination with 3 g bovine lactoferrin once per day for 5 consecutive days, composite suspension
Procedure: A 3-lactation cow in lactation with moderate mastitis is administered 300 mg of the oxazolidinone in EXAMPLE 2 in combination with administration of 3 g of bovine lactoferrin, once per day for 5 consecutive days. The oxazolidinone and the lactoferrin are prepared in a composite suspension formulation and administered by intramammary infusion.

For `CC(=O)NC[C@H]1CN(c2ccc(N3CCOCC3)c(F)c2)C(=O)O1` [EXAMPLE 1, (S)-N-[[3-[3-fluoro-4-(4-morpholinyl)phenyl]-2-oxo-5-oxazolidinyl]methyl]acetamide], the “mastitis status at the end of the treatment” value [1] was “the mastitis is gone”.

`CC(=O)NC[C@H]1CN(c2ccc(N3CCSCC3)c(F)c2)C(=O)O1` [EXAMPLE 2, N-[[(5S)-3-[3-fluoro-4-(4-thiomorpholinyl)phenyl]-2-oxo-1,3-oxazolidin-5-yl]methyl]acetamide] was tested, and the “occurrence of mastitis infection in treated cow” value (cow without mastitis) was “not infected” and the “mastitis status at the end of the treatment” value [2] was “the mastitis is gone”.
